The numbers were not newly measured in patent US20240188563A1, “CATHETER LOCK SOLUTIONS INCORPORATING NITRIC OXIDE RELEASING LIPOSOMES” (Becton, Dickinson and Company, priority 2022, published 2024), which cites them from elsewhere.

Molecules are shown by their SMILES.

The test system of this series is platelets. Particulars: extracorporeal circuit.

For the compound `CC(=O)N[C@H](C(=O)O)C(C)(C)SN=O` [SNAP only, S-nitroso-N-acetyl penicillamine], the “Platelet count after 4 h (% of initial)” value was “vs. 50% (SNAP only)”.
